According to US10106589B2, “Compositions and methods for immunomodulation” (FUNDACIO INSTITUT D'INVESTIGACIO BIOMEDICA DE BELLVITGE …, priority 2011, dated 2018):

How the values were obtained:
[1] = test system: allogeneic CD3+ T cells; test: Mixed leukocyte reaction ([3H]-thymidine incorporation); format: cell-based, human; design: key to Alloproliferation (T CD3^+): (−) negligible; (+) low; (++) moderate; (+++) high; details: functional assay; treated and LPS-induced DCs
Experimental: CD3^+ T cells (10^5/well) and C4BP-treated (α7β1 and α7β0), or Factor H-treated, and LPS-activated Mo-DCs were seeded in a 96-well round-bottom plate at various DC:T cell ratios (1:40, 1:80 and 1:160) and cultured in X-VIVO 15 medium (Biowittaker, Walkersville, Md.) supplemented with 100 μg/ml of streptomycin, 100 IU/ml of penicillin and 2 mM L-glutamine (all from Invitrogen) plus 2% Human AB Serum. Allospecific proliferation was measured after 5 days of incubation. At day 4, the […] [^3H]-thymidine (1 μCi/well, Perkin Elmer, Boston, Mass.) was added, followed by incubation for another 16 h. Labeled cells were then harvested onto glass-fiber filters with a Filtermate Harvester (Packard, Meriden, Conn.), and the T cell proliferation rate was determined by the amount of [^3H]-thymidine incorporation, which was measured in a TopCount NXT counter (Packard). Results are reported as the mean cpm±SD of thymidine incorporation in quadruplicate culture wells.

[2] = test system: human Mo-DCs; design: key: (−) negligible; (+) low; (++) moderate; (+++) high; details: Vit D3-treated and LPS-induced DCs; data from Heitger (2011); cited from earlier work
[3] = test system: human Mo-DCs; test: Apoptosis determination (Annexin V / 7-ADD); format: cell-based; design: key: (−) negligible; (+) low; (++) moderate; (+++) high; details: viability; treated and LPS-induced DCs
Source text: Double staining using with the fluorescent dyes Annexin V (Annexin V-PE Apoptosis Detection Kit I, BD Pharmigen, San Diego, Calif.) and 7-amino-actinomycin D (7-ADD) (BD Pharmigen), and flow cytometry analysis, was employed to assess the viability/apoptosis status of C4BP α7β1-, C4BP α7β0-, recC4BP α6β0-, or Factor H-treated and untreated Mo-DCs.

[4] = test system: human Mo-DCs; test: Flow cytometry of cell surface markers on treated, LPS-matured Mo-DCs; format: cell-based; design: key to HLA-DR / CD40 / CD83 / CD86 / CD14 / CD1a / CCR7: (−) negligible; (+) low; (++) moderate; (+++) high; details: surface marker; treated and LPS-induced DCs
Experimental: Peripheral blood mononuclear cells (PBMCs) were obtained from buffy coat preparations belonging to healthy donors from the Blood and Tissue Bank (Barcelona, Spain) after Ficoll-Paque™ density centrifugation (GE Healthcare Bio-Sciences AB; Uppsala, Sweden). Monocytes were purified by two different methods: 1) Cells were plated at 1×10^6 cells/ml in 60 mm culture plates (Corning, Spain) in RPMI without serum and allowed to adhere for 2 h at 37° C. in 5% CO2. The non-adherent cells were removed by washing in PBS. […] 2) Cells were purified using colloidal super-paramagnetic microbeads conjugated with monoclonal mouse anti-human CD14 antibodies (MACS, Miltenyi Biotec, Auburn, Calif., or EasySep® Positive Selection Cocktail, StemCell Technologies, Grenoble, France). The purity of CD14^+ cells was tested by CD14 staining and flow cytometry analysis (>90% CD14^+ cells). Monocyte-derived DCs (Mo-DCs) were generated supplementing the monocyte cultures with complete RPMI 1640 medium plus GM-CSF (800 UI/ml) and IL-4 (500 UI/ml) (both from Gentaur, Kampenhout, Belgium) at day 0 and day 3 of culture. For DC maturation, at day 5 iDCs were further stimulated for 48 h with 5 μg/ml LPS (Escherichia coli 055.B5, Sigma L2880, Copenhagen, Denmark).
Cell surface phenotypes were analyzed using the following monoclonal antibodies: FITC-conjugated anti-HLA-DR (Immu-357), FITC-conjugated anti-CD83 (HB15a), FITC-conjugated anti-CD14 (RMO52), PE-conjugated anti-CD40 (MAB89), PE-conjugated anti-CD1a (BL6), PE-conjugated anti-CD80 (MAB104), PE-conjugated anti-CD86 (HA5.2B7) (all from Beckman-Coulter), Alexa Fluor 488-conjugated anti-CCR7 (TG8/CCR7, Biolegend, San Diego, Calif.), and the respective isotype controls from the same commercial sources. After washing with PBS, cells were subsequently stained with 3 μl MoAb/10^5 cells in 100 μl of FACS buffer (PBS containing 1% BSA and 0.1% sodium azide) for 20 min at room temp. Stained cells were analysed using a FACScalibur (Becton Dickinson). Mo-DCs were gated according to forward scatter (FSC) and side scatter (SSC) parameters. The results were analysed using CellQuestPro software (Becton Dickinson).
Both the different C4BP isoforms (α7β1, α7β0 and α6β0), and Factor H were added at 2, 5 and 10 μg/ml throughout Mo-DC differentiation, maturation, or both. Namely, for the differentiation assays the proteins were added at day 0 and replenished at day 3. For the maturation assays the proteins were added at day 5, either alone or combined with LPS. Finally, for the differentiation plus maturation assays the proteins were added at days 0, 3 and 5 (at the last time point, combined with LPS).

[5] = test system: LPS-matured human Mo-DCs; design: key: (−) negligible; (+) low; (++) moderate; (+++) high; details: cytokine; Vit D3-treated and LPS-induced DCs; data from Naranjo-Gomez et al. (2011); cited from earlier work

C=C1/C(=C\C=C2/CCC[C@]3(C)[C@@H]([C@H](C)CCCC(C)(C)O)CC[C@@H]23)C[C@@H](O)C[C@@H]1O [Vit D3, calcitriol, reference compound]
Alloproliferation (T CD3^+) [1]: −
IDO [2]: +++ (**)
Apoptosis after treatment [3]: +
CCR7 [4]: ++
CD1a [4]: −
CD14 [4]: +
CD40 [4]: +
CD83 [4]: +
CD86 [4]: −
HLA-DR [4]: +
IL-10 [5]: ++ (*)
IL-12 [5]: − (*)
